From patent US9029337B2, “Modulation of factor 7 expression” (Isis Pharmaceuticals, Inc., priority 2007, dated 2015) come the findings set out here.

Strand notation (5' to 3'): a small letter for the sugar, then the base; units joined by * are phosphorothioate-linked, units joined directly phosphodiester-linked; [ ] holds rarer units or linkages, { } end groups; capitals alone tell only the bases. e = 2'-O-(2-methoxyethyl) (MOE); [5mC] = 5-methylcytosine; d = 2'-deoxy (DNA)

For orientation: % Inhibition means the share of the control response that was lost under treatment.

The test system of this data set is human Factor 7 mRNA. Briefly: Antisense inhibition of human Factor 7 with short (14-mer) oligonucleotides in HepB3 cells, electroporation 1,000 nM. The data set is classed as cell-based. The note with it: electroporation, 1,000 nM antisense oligonucleotide, approximately 24 hours, Factor 7 mRNA relative to untreated control cells. In outline:
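14-mer 2-10-2 MOE gapmers (full phosphorothioate, 5-methyl-C) electroporated at 1,000 nM into HepB3 cells at 20,000 cells/well. After ~24 h, Factor 7 mRNA by real-time RT-PCR, normalized to RiboGreen total RNA. Reported as % inhibition relative to untreated cells.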
For “435746 (antisense eA*eT*dT*dG*dA*d[5mC]*dA*dA*dG*dG*dG*d[5mC]*eT*eG) [compound 435746]”, the “% Inhibition” value was determined as 32%.
Regarding “435747 (antisense eA*eT*dA*dT*d[5mC]*dA*dT*dT*dG*dA*d[5mC]*dA*eA*eG) [compound 435747]”, the “% Inhibition” value was determined as 0%.
With “435748 (antisense eT*e[5mC]*d[5mC]*d[5mC]*dA*dG*dG*dG*dT*d[5mC]*dT*d[5mC]*eT*eG) [compound 435748]”, the “% Inhibition” value came to 18%.
Under “435749 (antisense e[5mC]*eA*dG*d[5mC]*d[5mC]*dA*dG*dG*dG*d[5mC]*d[5mC]*dT*eG*eG) [compound 435749]” stands 29%.
Under “435750 (antisense e[5mC]*eA*d[5mC]*dT*dG*d[5mC]*dA*dG*d[5mC]*d[5mC]*dA*dG*eG*eG) [compound 435750]” stands 14%.
Consider “435751 (antisense e[5mC]*eT*dT*dG*d[5mC]*d[5mC]*dA*dG*dG*dT*d[5mC]*d[5mC]*eT*e[5mC]) [compound 435751]”, for which the “% Inhibition” value amounted to 28%.
To “435752 (antisense eT*eG*d[5mC]*dA*dG*d[5mC]*dT*dT*dG*d[5mC]*d[5mC]*dA*eG*eG) [compound 435752]” belongs 12%; to “435753 (antisense eA*eA*dG*dA*dG*dT*dG*d[5mC]*dA*dG*d[5mC]*dT*eT*eG) [compound 435753]”, 9%; to “435754 (antisense eT*e[5mC]*dA*dG*d[5mC]*dA*dA*dG*dA*dG*dT*dG*e[5mC]*eA) [compound 435754]”, 16%.
To “435755 (antisense eG*eG*dG*dA*d[5mC]*dT*d[5mC]*dA*dG*d[5mC]*dA*dA*eG*eA) [compound 435755]” belongs 0%; to “435756 (antisense eT*eG*d[5mC]*d[5mC]*d[5mC]*dA*dG*dG*dA*d[5mC]*dG*dG*e[5mC]*e[5mC]) [compound 435756]”, 20%.
Consider “435757 (antisense eT*eG*d[5mC]*d[5mC]*dT*dG*dA*dG*dT*dG*d[5mC]*d[5mC]*e[5mC]*e[5mC]) [compound 435757]”, for which the “% Inhibition” value amounted to 51%.
For “435758 (antisense e[5mC]*e[5mC]*d[5mC]*dT*dG*dA*dG*d[5mC]*dT*dG*dG*dG*e[5mC]*eA) [compound 435758]”, the “% Inhibition” value was 4%.
For “435759 (antisense eG*eA*dG*d[5mC]*d[5mC]*dA*d[5mC]*dA*dG*dA*dG*d[5mC]*e[5mC]*eT) [compound 435759]”, the “% Inhibition” value was 11%.
For the substance “435760 (antisense eT*e[5mC]*dT*dT*dG*dG*dG*dT*dG*dT*dG*dG*eA*eT) [compound 435760]”, the “% Inhibition” value is 17%.
Regarding “435761 (antisense e[5mC]*eA*dG*dA*dT*dG*dA*dA*dA*dA*d[5mC]*dT*eT*eG) [compound 435761]”, the “% Inhibition” value was 5%.
As for “435762 (antisense e[5mC]*eA*dG*dG*dT*dG*dT*dT*dA*dA*dG*dG*eT*eG) [compound 435762]”, the “% Inhibition” value is recorded as 0%.
Regarding “435763 (antisense eA*eG*dG*dA*dG*dA*dA*dA*dG*dG*dT*d[5mC]*eA*eG) [compound 435763]”, the “% Inhibition” value is 2%.
To “435764 (antisense eT*eG*dA*dG*dA*dG*d[5mC]*dT*dG*d[5mC]*dA*d[5mC]*e[5mC]*eT) [compound 435764]” belongs 8%.
On to “435765 (antisense e[5mC]*eA*dA*dA*dG*dT*dT*d[5mC]*dT*d[5mC]*dT*dG*e[5mC]*e[5mC]) [compound 435765]”, for which the “% Inhibition” value worked out at 1%.
“435766 (antisense eG*e[5mC]*dA*d[5mC]*d[5mC]*dT*dG*d[5mC]*dA*dG*d[5mC]*d[5mC]*eA*eG) [compound 435766]”: the “% Inhibition” value worked out at 51%.
With “435767 (antisense e[5mC]*eA*d[5mC]*d[5mC]*dA*dA*dG*dT*dT*dT*dA*dT*eG*eG) [compound 435767]”, the “% Inhibition” value is reported as 0%.
Take “435768 (antisense eG*e[5mC]*d[5mC]*dT*dG*dG*dA*dT*dG*d[5mC]*dT*dG*eG*eT) [compound 435768]”: the “% Inhibition” value amounted to 75%.
For the substance “435769 (antisense eT*eT*d[5mC]*dT*dT*dT*dG*dA*dA*dA*dA*dA*eT*eA) [compound 435769]”, the “% Inhibition” value is 0%.
“435770 (antisense e[5mC]*eT*d[5mC]*dT*dG*dA*dG*dA*dG*dG*d[5mC]*d[5mC]*e[5mC]*e[5mC]) [compound 435770]”: the “% Inhibition” value stood at 81%.
For the substance “435771 (antisense eG*eT*d[5mC]*dA*dT*dA*dA*dG*dG*d[5mC]*d[5mC]*dA*eT*eG) [compound 435771]”, the “% Inhibition” value worked out at 13%.
On to “435772 (antisense eG*e[5mC]*dA*dG*dT*d[5mC]*d[5mC]*d[5mC]*dT*dG*d[5mC]*dT*e[5mC]*eA) [compound 435772]”, for which the “% Inhibition” value stood at 42%.
In the case of “435773 (antisense e[5mC]*eA*dG*dG*dG*dA*dA*d[5mC]*dA*d[5mC]*d[5mC]*d[5mC]*eT*e[5mC]) [compound 435773]”, the “% Inhibition” value was found to be 57%.
Consider “435774 (antisense eG*eT*d[5mC]*d[5mC]*d[5mC]*dA*dG*dG*dG*dA*dA*dG*eG*e[5mC]) [compound 435774]”, for which the “% Inhibition” value worked out at 17%.
In the case of “435775 (antisense eT*e[5mC]*dT*dG*dG*dA*dA*dG*dG*dA*dA*d[5mC]*eA*eG) [compound 435775]”, the “% Inhibition” value was 25%.
Under “435776 (antisense eG*eG*dG*dA*d[5mC]*dA*d[5mC]*dT*d[5mC]*dA*d[5mC]*dA*e[5mC]*eT) [compound 435776]” stands 51%; under “435777 (antisense e[5mC]*eT*dG*dA*dG*dG*dA*dT*dG*d[5mC]*dA*dG*eG*e[5mC]) [compound 435777]”, 53%; under “435778 (antisense eG*e[5mC]*dT*dA*d[5mC]*dT*dG*dG*dG*d[5mC]*d[5mC]*dA*e[5mC]*eG) [compound 435778]”, 49%.
In the case of “435779 (antisense eT*eG*dA*dG*d[5mC]*dG*d[5mC]*dG*dG*dA*dA*dG*eA*eA) [compound 435779]”, the “% Inhibition” value is recorded as 50%.
Take “435780 (antisense eG*eG*dA*dG*dG*dG*dA*d[5mC]*dG*dA*d[5mC]*d[5mC]*eT*eT) [compound 435780]”: the “% Inhibition” value is 28%.
Consider “435781 (antisense eA*e[5mC]*d[5mC]*dA*d[5mC]*dG*d[5mC]*dG*dG*dT*dG*dG*eT*eG) [compound 435781]”, for which the “% Inhibition” value is 0%.
To “435782 (antisense e[5mC]*eG*dT*dG*d[5mC]*dG*d[5mC]*dT*d[5mC]*dA*dG*d[5mC]*eT*e[5mC]) [compound 435782]” belongs 36%; to “435783 (antisense eA*eA*dA*d[5mC]*d[5mC]*dG*dG*d[5mC]*dA*dT*dG*d[5mC]*eG*e[5mC]) [compound 435783]”, 49%.
Under “435784 (antisense e[5mC]*e[5mC]*dT*dA*dA*dG*dT*dG*dT*dG*d[5mC]*dT*eT*eT) [compound 435784]” stands 17%; under “435785 (antisense eA*eG*d[5mC]*dT*dT*d[5mC]*dT*d[5mC]*dA*d[5mC]*d[5mC]*dA*e[5mC]*eG) [compound 435785]”, 46%.
